Measured values taken from PubChem BioAssay AID1361 (SRMLSC, 2008).
Active and inactive are the calls of the source. How the calls were made is not given here.

Experiment: mitochondrial fusion inhibitors, confirmation, cell-based, chemical genetic, wild-type and mutant (AID 1361)
Details: Cell-based mitochondrial fusion phenotype, imaging
[1] = mutant cells, measured here: mutant cell line IC50

Structure (SMILES) | IC50 (WT cells) | IC50 [1] [µM]
Nn1c(SCC(=O)Nc2ccc3c(c2)OCO3)nnc1-c1ccncc1 | > 25 µM (inactive) | > 25
O=C(N/N=C/c1c[nH]c2ccccc12)C1CC1(c1ccccc1)c1ccccc1 (stereo not drawn) | > 25 µM (inactive) | > 25
CCc1ccccc1N(CC)C(=O)CCc1nc(-c2ccc(C)cc2)no1 | 19.6 µM | 23.2
COCCCNC(=O)CS(=O)(=O)Cc1nc(-c2cccc(OC)c2)oc1C | > 25 µM (inactive) | > 25
CN(CC(=O)Nc1ccccc1Sc1ccccc1)C1CCCCC1 | 23.2 µM | > 25
C=CCSc1nnc(NC(=O)COc2ccc3ccccc3c2)s1 | > 25 µM (inactive) | > 25
C(=N\Nc1nc(Nc2ccccc2)nc(N2CCCCC2)n1)/c1ccco1 | 22.5 µM | > 25
O=S(=O)(NCC(Nc1ccc(Cl)cc1)c1ccccc1)c1ccc(Cl)cc1 (stereo not drawn) | > 25 µM (inactive) | > 12.5
CC(C)(C)c1ccc(S(=O)(=O)Nc2ccc(Cc3ccncc3)cc2)cc1 | 23.3 µM | > 25
COC(=O)c1ccc(-c2sc3nc(N4CCOCC4)c4c(c3c2N)CCCC4)o1 | > 25 µM (inactive) | > 25
CCOc1ccc(-c2[nH]ncc2Oc2ccccc2OCC)c(O)c1 | > 25 µM (inactive) | > 25
CCOc1ccc(NCc2nnc(SCc3ccc(Cl)cc3)n2-c2ccccc2)cc1 | > 25 µM (inactive) | > 25
c1ccc(Cn2c(CNc3nc4ccccc4n3CCN3CCCCC3)nc3ccccc32)cc1 | > 25 µM (inactive) | > 25
Cc1nc2ccccc2nc(C)c1=NOCc1ccc(Cl)cc1Cl | 24.2 µM | > 25
O=C(OCc1nnc(-c2ccccc2)o1)C12CC3CC(CC(Br)(C3)C1)C2 | 24.1 µM | > 25
O=C(Nn1c(-c2ccccc2)nc2ccccc2c1=O)C1CCC1 | > 25 µM (inactive) | > 25
COc1ccc(NC(=S)NCCC(c2ccccc2)c2ccccc2)c(OC)c1 | 7.67 µM | > 25
O=C(CCN1C(=O)/C(=C\c2cccs2)SC1=S)NC1=NCCS1 | 8.36 µM | 17.6
CC(C)(C)C1CCc2c(sc(NC(=O)CSc3ncn[nH]3)c2C#N)C1 (stereo not drawn) | 15.8 µM | > 25
CC12CC3(C)CC(C)(C1)CC(C(=O)NC(=S)NC(C)(C)C)(C2)C3 | 11.6 µM | > 25

Structure (SMILES) | IC50 (WT cells) | IC50 [1] [µM]
OC(CC1CC12c1ccccc1-c1ncccc12)(c1ccccc1)c1ccccc1 (stereo not drawn) | 13.8 µM | > 25
Cc1cccc(-c2noc(CN(C(=O)CCc3ccccc3)C(C)C)n2)c1 | > 25 µM (inactive) | 24.5
CCOC(=O)/C(=C\c1ccc(OC(F)F)cc1)C1=Nn2c(nnc2-c2ccc(Cl)cc2)SC1 | 10.8 µM | > 25
CCOC(=O)c1sc(/N=C/c2c(C)[nH]n(-c3ccccc3)c2=O)c(C#N)c1C | > 25 µM (inactive) | > 25
CCN1CCN(CCNC(=O)c2ccc(/C=C3/Sc4ccccc4N(Cc4ccccc4C)C3=O)cc2)CC1 | 15.5 µM | > 25
CCOc1ccc(Br)cc1C1C(C(=O)OC)=C(N)Oc2cc(N(C)C)ccc21 (stereo not drawn) | 11.7 µM | > 25
CCOC(=O)c1cnc(-n2nc(C)cc2C)nc1NNc1cc(C)nc(-c2ccccc2)n1 | 16.3 µM | > 25
CCc1ccc2ncc(S(=O)(=O)c3ccc(C)c(C)c3)c(N3CCCC3)c2c1 | 14.6 µM | > 25
CS(=O)(=O)c1nc2ccccc2n1Cc1ccccc1 | > 25 µM (inactive) | > 25
CC(C)CCNC(=O)CCCOc1cc(=O)n(C)c2ccccc12 | > 25 µM (inactive) | > 25
CCCC[C@@H]1C[C@H]1[C@@H](NC(=O)c1ccco1)c1ccc(Cl)cc1 | 21.4 µM | > 25
N=c1c(C(=O)NCc2ccco2)cc2c(=O)n3ccccc3nc2n1Cc1ccc(Cl)cc1 | > 25 µM (inactive) | > 25
Cc1nc2c(ccc3nc(NC(=O)Cc4ccccc4)sc32)s1 | 12.4 µM | > 25
CC(C)Cc1ccc(C(C)C(=O)OCC(=O)c2c[nH]c3ccccc23)cc1 (stereo not drawn) | 17.5 µM | > 25
CCC(C)(C)NC(=O)CN(C(=O)c1snc(C(N)=O)c1N)c1ccc2c(c1)OCCO2 | > 25 µM (inactive) | > 25
Cn1c(=O)c(NC2CCCCC2)c2c3c(cccc31)C(=O)c1ccccc1-2 | 11 µM | 21.1
CCCN(Cc1ccccc1)C(=S)Nc1ccc(SC(F)F)cc1 | 20.6 µM | > 25
Cc1cccc(OCCCC(=O)Nc2ccc3c(c2)OCO3)c1 | > 25 µM (inactive) | > 25
O=C(Nc1ccc(F)cc1)c1ccccc1Oc1ccc(C(F)(F)F)cc1[N+](=O)[O-] | 17.5 µM | > 25
CN(c1cccc(NC(=O)Nc2ccc(Cl)cc2)c1)S(C)(=O)=O | > 25 µM (inactive) | > 25

Structure (SMILES) | IC50 (WT cells) | IC50 [1] [µM]
COc1ccc(OC)c2c(N)c(C#N)c(C(F)(F)C(F)(F)F)nc12 | > 25 µM (inactive) | > 25
C/C(=N\Nc1nc(N2CCCCCC2)nc(N2CCCCCC2)n1)c1ccccc1 | 12.6 µM | > 25
COc1cc(SC#N)ccc1N=Cc1c(C)[nH]n(-c2ccc(C)cc2)c1=O | 17.4 µM | > 25
Cc1ccc(Nc2nc(N)c([N+](=O)[O-])c(NCc3ccco3)n2)cc1C | 15.5 µM | > 25
CCCCCCP(=O)(O)c1ccccc1 | > 25 µM (inactive) | > 25
C/C(=N\NC(=S)NCc1ccccc1)c1ccc2ccccc2c1OC(F)F | 7.44 µM | 25
O=C(N=Nc1c(O)n(Cc2ccccc2)c2ccccc12)c1cc2ccccc2cc1O | > 25 µM (inactive) | > 25
Cc1[nH]c2ccccc2c1/C=C(\C#N)C(=O)NC(C)c1ccccc1 (stereo not drawn) | > 25 µM (inactive) | > 25
COc1ccc(CN(C)C2c3ccccc3-c3ccccc32)cc1 | 16.7 µM | 17
COc1ccc(/C=N/NC(=O)c2ccn[nH]2)cc1COc1ccc(Cl)cc1Cl | 23 µM | > 25
Cc1ccc(C)c(NC(=O)c2cc(-c3ccccc3)nn2-c2ccccc2)c1 | 4.99 µM | > 25
O=C(CN1CCCCC1)Nc1ccc(Br)cc1C(=O)c1ccccc1Cl | 12 µM | > 25
CCOC(=O)C1CCN(CC(=O)Nc2cc(C)nn2-c2nc3ccccc3s2)CC1 | > 25 µM (inactive) | > 25
O=C(CCC1N=C2c3ccccc3N=C(SCc3cccc(Cl)c3)N2C1=O)NCc1ccco1 (stereo not drawn) | > 25 µM (inactive) | > 25
CC1CCc2c(sc(NC(=O)COC(=O)c3ccc(O)cc3)c2C#N)C1 (stereo not drawn) | > 25 µM (inactive) | > 25
Cc1ccc(O)c(C(=O)/C=C/c2ccc3c(c2)OCCCO3)c1 | 12.3 µM | > 25
CC1CC(C)CN(C2CCN(Cc3cccnc3)CC2)C1 (stereo not drawn) | > 25 µM (inactive) | > 25
Cc1cc(Cl)ccc1NC(=S)NCCC(c1ccccc1)c1ccccc1 | 4.91 µM | > 25
COC(=O)c1ccc(NCC(=O)c2ccccc2)cc1 | > 25 µM (inactive) | > 25
